Results from PMC12147761 (Journal of medicinal chemistry, 2025).

Experiments:
CDK12/CycK = molecular target: T1, CDK12/CycK (Homo sapiens, UniProt Q9NYV4); experiment: ADP-Glo kinase assay, CDK12; format: biochemical; settings: for IC50: ADP-Glo kinase assay, means from three independent experiments
T1 construct: ICE Bioscience Inc. (assay service)
Method: (§1) The kinase inhibitory activities of the compounds against CDK12 and CDK13 were preliminarily evaluated using the ADP-Glo kinase assay. Cell growth inhibition was determined in VCaP prostate cancer cells, which were characterized as being sensitive to CDK12/13 inhibition.[14]
All the kinase activity were performed using an ADP-Glo kinase assay by ICE Bioscience Inc. (Beijing, China). Kinome selectivity profiles (KINOMEscan profiling) and Kd detection were performed by Eurofins DiscoveryX Corporation (San Diego, CA, USA).

CDK13/CycK = molecular target: T2, CDK13/CycK (Homo sapiens, UniProt Q14004); experiment: ADP-Glo kinase assay, CDK13; format: biochemical; settings: means from three independent experiments
T2 construct: ICE Bioscience Inc. (assay service)
Method: as §1

[1] = test system: VCaP prostate cancer cells; experiment: Cell proliferation assay (CellTiter-Glo), VCaP; format: cell-based, human; settings: for IC50: Homo sapiens, VCaP, 120 h, cell growth inhibition, 5 days, CellTiter-Glo
Method: as §1
Cells were seeded in 96-well plates and incubated at 37 °C and 5% CO2. After overnight incubation, serial dilutions of tested compounds were added to the plate. The assay was tested with Cell Titer-Glo (Promega) after 5 days. The luminescence signal was detected by the Infinite M1000 Pro plate reader (Tecan), and the IC50 values were calculated by GraphPad Prism 10.

CDK12 = test system: CDK12; design: method as in PMID 30067358; settings: LANCE Ultra assay; read-out: reported IC50 CDK12; cited from earlier work
[2] = test system: phosphorylation of RNA polymerase II at Ser2; experiment: Washout experiment, RNA polymerase II Ser2 phosphorylation (immunoblot); format: cell-based, human; settings: VCaP cells; YJZ5118 100 nM
Method: (§2) The previously reported reversible inhibitor 10 was included for comparison. VCaP cells were treated with the compounds for 6 h, after which the compounds were removed, and the cells were cultured in compound-free media for 5 days.
Generally, after incubation with the compounds for the indicated time, the tested cells were washed by cold PBS buffer (Gibco) and lysed with RIPA buffer (ThermoFisher Scientific) supplemented with cOmplete protease inhibitor cocktail tablets (Sigma-Aldrich). The cell lysate was treated with ultrasonic for 20s, following a centrifugation of 14000 rpm at 4°C for 10 min. The protein concentration was measured by BCA protein assay (DC Protein Assay, BIO-RAD). An equal amount of protein was loaded to 4–12% Bis-Tris gels and underwent SDS-PAGE electrophoresis at 120 V for 90 min. The proteins were transferred to a nitrocellulose (NC) membrane (Thermo Scientific) and the membranes were blocked in 5% milk buffer at room temperature for 1h, followed by incubating with primary antibody at the recommended dilution at 4°C for overnight. The membranes were washed by PBST for three times and incubated with anti-rabbit or anti-mouse HRP-conjugated secondary antibody for 1h at room temperature, after which the membranes were imaged by Odyssey CLx Imager (LiCOR Biosciences).

CDK15/CycY = molecular target: T3, CDK15/CycY (Homo sapiens, UniProt Q96Q40); experiment: CDK family panel, ADP-Glo; format: biochemical
T3 construct: ICE Bioscience Inc. (assay service)

CDK13 = test system: CDK13; design: method as in PMID 30067358; settings: LANCE Ultra assay; read-out: reported IC50 CDK13; cited from earlier work
VCaP cells [3] = experiment: Cell apoptosis assay by flow cytometry; format: cell-based, human; settings: YJZ5118 at 100 nM
Method: Cells were seeded in six-well plates and incubated for 24 h at 37 °C and 5% CO2. Cells were then treated with the indicated concentrations of the tested compounds for 48 h. The treated cells then were collected, centrifuged and washed twice by cold PBS. […] Cell samples were analyzed with flow cytometry (SH800S cell sorter, Sony Biotechnology).

VCaP CRPC xenograft = experiment: In vivo efficacy, VCaP CRPC mouse model; design: species or system mice; settings: YJZ5118 i.p., q.d., uprosertib p.o., 5x/week, 27 days, compared to vehicle
Method: All the animal experiments were performed under an approved animal protocol (Protocol ID: PRO00010006, PI, Arul Chinnaiyan) by the Institutional Animal Care & Use Committee of the University of Michigan. Six- to eight-week-old NSG (Jackson Laboratory) or CB17SCID female (Charles River Laboratory) mice were in a regular SPF housing room prior to cell injection. Briefly, 5 ×10^6 cells of VCaP CRPC were injected […] of NSG or CB17SCID mice, respectively. After tumor size reached approximately 200–400 mm^3, animals were subjected to drug treatment. […] Vehicle consisted of 20% PEG400, 6% Cremophor EL, and 74% PBS solution. Tumors were collected at the end of the experiment for Western blot analysis.

[4] = Permeability and efflux ratio in Caco-2 cells; format: in vitro ADME; settings: human
VCaP cells [5] = experiment: Washout experiment, cell growth; format: cell-based, human; settings: VCaP cells treated 6 h, compound removed, 5 days in compound-free media
Method: as §2

[6] = Pharmacokinetics study in mice; format: in vivo, ICR mice; settings: both sexes, ICR, mouse, plasma
468 kinases = experiment: KINOMEscan kinase selectivity profiling; format: binding; settings: 1 μM; 403 non-mutant kinases
Method: Figure S1. The results of selectivity profiling study of compound 14h. (A) Chemical structure and the K d values of compound 14h against CDK12/13, and the KinomeScan kinase selectivity proﬁles of compound 14h at 1 μM against 468 kinases; (B) KinomeScan profiling results of compound 14h against CDK family members.
(1 picture or pasted object on this page, not shown here)

T2 sequence (Q14004 whole entry): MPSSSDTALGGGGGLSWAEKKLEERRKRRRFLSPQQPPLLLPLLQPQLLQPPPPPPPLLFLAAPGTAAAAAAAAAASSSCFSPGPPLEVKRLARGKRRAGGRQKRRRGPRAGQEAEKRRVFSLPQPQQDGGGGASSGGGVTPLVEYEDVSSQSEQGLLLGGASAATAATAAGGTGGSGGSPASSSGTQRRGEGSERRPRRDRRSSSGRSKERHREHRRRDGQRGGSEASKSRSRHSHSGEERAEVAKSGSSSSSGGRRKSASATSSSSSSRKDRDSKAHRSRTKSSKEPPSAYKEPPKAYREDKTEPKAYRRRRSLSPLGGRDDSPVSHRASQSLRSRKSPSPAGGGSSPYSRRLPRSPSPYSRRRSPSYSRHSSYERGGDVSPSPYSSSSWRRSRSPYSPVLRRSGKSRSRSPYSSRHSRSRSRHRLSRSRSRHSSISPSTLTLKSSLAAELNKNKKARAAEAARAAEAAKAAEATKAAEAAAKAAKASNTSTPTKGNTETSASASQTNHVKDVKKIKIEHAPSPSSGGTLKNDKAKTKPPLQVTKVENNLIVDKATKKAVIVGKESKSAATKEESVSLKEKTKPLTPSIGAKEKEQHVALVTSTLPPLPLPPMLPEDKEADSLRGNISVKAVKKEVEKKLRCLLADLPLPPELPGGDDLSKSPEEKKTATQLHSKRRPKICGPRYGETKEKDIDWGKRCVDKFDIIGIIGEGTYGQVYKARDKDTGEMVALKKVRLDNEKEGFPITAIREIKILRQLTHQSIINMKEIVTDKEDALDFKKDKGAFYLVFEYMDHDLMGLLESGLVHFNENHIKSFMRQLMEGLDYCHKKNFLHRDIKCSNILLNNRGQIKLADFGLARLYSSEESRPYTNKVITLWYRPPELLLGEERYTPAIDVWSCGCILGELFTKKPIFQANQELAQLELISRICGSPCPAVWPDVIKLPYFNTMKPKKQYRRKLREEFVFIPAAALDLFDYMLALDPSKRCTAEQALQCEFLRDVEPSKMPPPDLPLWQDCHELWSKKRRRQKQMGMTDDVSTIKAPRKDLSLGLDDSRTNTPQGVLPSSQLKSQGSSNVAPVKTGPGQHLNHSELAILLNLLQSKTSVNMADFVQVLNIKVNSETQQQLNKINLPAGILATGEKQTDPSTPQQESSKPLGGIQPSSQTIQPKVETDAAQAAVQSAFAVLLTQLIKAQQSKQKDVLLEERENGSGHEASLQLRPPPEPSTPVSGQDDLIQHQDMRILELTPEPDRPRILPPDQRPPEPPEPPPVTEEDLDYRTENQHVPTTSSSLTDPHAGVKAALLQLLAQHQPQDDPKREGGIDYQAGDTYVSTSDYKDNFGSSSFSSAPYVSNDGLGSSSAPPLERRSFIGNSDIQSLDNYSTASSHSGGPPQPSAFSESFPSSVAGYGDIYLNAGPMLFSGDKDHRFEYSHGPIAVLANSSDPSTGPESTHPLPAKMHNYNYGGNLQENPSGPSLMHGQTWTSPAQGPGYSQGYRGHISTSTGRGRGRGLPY
T2 sequence (O75909 whole entry partner): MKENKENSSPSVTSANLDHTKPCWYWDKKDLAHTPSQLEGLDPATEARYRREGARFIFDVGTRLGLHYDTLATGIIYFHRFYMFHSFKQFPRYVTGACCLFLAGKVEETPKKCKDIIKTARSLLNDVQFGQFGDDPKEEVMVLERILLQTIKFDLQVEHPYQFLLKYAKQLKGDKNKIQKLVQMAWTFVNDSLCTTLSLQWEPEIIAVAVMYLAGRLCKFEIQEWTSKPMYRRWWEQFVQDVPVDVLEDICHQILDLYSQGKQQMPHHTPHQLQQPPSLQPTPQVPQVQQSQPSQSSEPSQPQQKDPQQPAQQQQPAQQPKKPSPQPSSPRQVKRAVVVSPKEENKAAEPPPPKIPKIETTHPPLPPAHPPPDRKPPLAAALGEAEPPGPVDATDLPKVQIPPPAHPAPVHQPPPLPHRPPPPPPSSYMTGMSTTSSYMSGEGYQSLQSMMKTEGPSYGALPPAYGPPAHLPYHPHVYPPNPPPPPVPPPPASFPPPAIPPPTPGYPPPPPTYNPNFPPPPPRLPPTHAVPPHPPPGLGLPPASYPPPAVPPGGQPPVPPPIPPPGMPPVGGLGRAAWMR
T1 sequence (Q9NYV4 whole entry): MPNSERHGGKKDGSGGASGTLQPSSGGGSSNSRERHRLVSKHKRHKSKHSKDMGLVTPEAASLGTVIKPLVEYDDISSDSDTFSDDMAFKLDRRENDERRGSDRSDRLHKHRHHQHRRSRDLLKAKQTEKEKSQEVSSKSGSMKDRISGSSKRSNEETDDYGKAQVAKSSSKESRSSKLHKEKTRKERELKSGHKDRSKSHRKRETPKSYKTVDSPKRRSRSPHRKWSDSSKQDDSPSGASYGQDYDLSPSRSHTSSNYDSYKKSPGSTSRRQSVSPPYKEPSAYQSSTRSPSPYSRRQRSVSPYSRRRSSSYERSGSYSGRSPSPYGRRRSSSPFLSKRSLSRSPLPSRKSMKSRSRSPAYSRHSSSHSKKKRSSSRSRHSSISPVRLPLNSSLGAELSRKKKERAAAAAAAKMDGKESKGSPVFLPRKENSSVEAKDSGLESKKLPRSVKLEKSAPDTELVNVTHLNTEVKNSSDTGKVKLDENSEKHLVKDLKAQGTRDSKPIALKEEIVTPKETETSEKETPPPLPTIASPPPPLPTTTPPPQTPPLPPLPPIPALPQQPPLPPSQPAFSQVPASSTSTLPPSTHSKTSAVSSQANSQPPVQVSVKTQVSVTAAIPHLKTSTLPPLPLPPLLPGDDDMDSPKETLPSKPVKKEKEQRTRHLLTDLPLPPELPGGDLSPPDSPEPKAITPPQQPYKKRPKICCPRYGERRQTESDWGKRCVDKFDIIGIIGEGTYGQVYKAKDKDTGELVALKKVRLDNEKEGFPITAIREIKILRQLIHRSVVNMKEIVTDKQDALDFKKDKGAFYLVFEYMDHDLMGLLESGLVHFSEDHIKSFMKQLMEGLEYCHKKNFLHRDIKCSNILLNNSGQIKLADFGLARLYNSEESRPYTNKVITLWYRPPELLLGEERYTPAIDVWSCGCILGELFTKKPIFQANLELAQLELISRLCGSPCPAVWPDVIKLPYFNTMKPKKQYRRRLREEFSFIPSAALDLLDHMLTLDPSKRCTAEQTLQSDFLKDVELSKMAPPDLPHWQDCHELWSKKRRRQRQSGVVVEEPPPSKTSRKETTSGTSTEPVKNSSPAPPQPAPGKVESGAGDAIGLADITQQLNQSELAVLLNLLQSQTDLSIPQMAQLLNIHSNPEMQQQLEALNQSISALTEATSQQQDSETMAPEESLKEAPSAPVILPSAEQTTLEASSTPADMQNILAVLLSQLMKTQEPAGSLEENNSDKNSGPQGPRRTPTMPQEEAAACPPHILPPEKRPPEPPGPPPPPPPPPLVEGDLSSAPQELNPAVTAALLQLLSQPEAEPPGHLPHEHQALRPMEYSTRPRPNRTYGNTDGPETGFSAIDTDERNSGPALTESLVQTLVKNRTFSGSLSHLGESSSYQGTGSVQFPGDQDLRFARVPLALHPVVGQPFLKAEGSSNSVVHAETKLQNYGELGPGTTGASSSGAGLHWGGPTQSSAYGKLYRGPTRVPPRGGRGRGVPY
T1 sequence (O75909 whole entry partner): as the sequence (O75909 whole entry partner) above
T3 sequence (Q96Q40 whole entry, species assumed): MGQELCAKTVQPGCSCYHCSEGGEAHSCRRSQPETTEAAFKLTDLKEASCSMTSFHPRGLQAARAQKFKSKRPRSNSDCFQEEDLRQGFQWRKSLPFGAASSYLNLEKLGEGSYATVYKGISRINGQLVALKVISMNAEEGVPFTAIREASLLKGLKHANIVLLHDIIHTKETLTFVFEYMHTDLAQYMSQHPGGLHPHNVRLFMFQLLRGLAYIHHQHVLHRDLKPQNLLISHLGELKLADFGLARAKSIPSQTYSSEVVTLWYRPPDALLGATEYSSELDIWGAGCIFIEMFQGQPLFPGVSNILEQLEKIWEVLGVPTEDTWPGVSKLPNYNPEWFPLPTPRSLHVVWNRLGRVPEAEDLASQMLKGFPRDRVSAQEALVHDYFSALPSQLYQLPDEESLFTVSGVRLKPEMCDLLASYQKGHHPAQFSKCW
T3 sequence (Q8ND76 whole entry partner, species assumed): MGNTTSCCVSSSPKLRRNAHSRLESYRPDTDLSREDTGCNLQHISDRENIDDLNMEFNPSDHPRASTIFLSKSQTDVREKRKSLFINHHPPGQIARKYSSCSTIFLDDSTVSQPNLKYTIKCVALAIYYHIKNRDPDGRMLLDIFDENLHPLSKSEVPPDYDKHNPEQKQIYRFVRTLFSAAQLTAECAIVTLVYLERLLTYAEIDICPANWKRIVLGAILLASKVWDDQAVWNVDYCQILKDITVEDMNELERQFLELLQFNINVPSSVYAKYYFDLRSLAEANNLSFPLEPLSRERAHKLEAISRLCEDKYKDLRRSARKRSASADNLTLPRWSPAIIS

| Compound | IC50 (CDK12/CycK) [nM] | IC50 (CDK13/CycK) [nM] | IC50 [1] [nM] | other results |
| --- | --- | --- | --- | --- |
| C=CC(=O)Nc1cc(N(C(=O)NCc2ccccc2)[C@H]2CC[C@H](Nc3ccc(C#N)cn3)CC2)ccc1N1CCN(C)CC1 [Compound 14f, N-(5-(3-benzyl-1-((1r,4r)-4-((5-cyanopyridin-2-yl)amino)cyclohexyl)ureido)-2-(4-methylpiperazin-1-yl)phenyl)acrylamide] | 130 | 66.8 | 39.9 |  |
| Cn1cc(-c2ccc(N(C(=O)NCc3ccccc3)[C@H]3CC[C@H](Nc4ccc(C#N)cn4)CC3)cc2)ccc1=O [Compound 2, reference compound] |  |  |  | IC50 (CDK12): 52 nM; RNA polymerase II Ser2 phosphorylation after washout [2]: recovery of phosphorylation at 4 h after washout; IC50 (CDK15/CycY): 3020 nM; IC50 (CDK13): 10 nM |
| CN(C)C/C=C/C(=O)Nc1ccc(C(=O)N2CCC[C@@H](Nc3ncc(Cl)c(-c4c[nH]c5ccccc45)n3)C2)cc1 [Compound 3, THZ531, reference compound] | 77.4 | 63.3 | 33.5 | apoptosis rate (VCaP cells [3]): 24.9% |
| Cn1ncc(Cl)c1-c1cc(C(=O)N[C@H](CN)Cc2ccc(F)c(F)c2)oc1Cl [Uprosertib, reference compound] |  |  |  | tumor growth (VCaP CRPC xenograft): significant reduction in tumor growth |
| C=CC(=O)Nc1cccc(N(C(=O)NCc2ccccc2)[C@H]2CC[C@H](Nc3ccc(C#N)cn3)CC2)c1 [Compound 14b, N-(3-(3-benzyl-1-((1r,4r)-4-((5-cyanopyridin-2-yl)amino)cyclohexyl)ureido)phenyl)acrylamide] | 506 | 99 | 96.2 | reduction in kinase inhibitory potency compared with 14a (CDK12/CycK; CDK12 and CDK13): 7- to 13 fold; Papp A→B [4]: 0.91 ×10⁻⁶ cm/s; Papp B→A [4]: 13.7 ×10⁻⁶ cm/s; efflux ratio [4]: 15; fold more potency than 14a in the growth inhibition assay against VCaP cells [1]: 3.4 fold |
| C=CC(=O)Nc1cc(N(C(=O)NCc2ccccc2)[C@H]2CC[C@H](Nc3ccc(C#N)cn3)CC2)ccc1N1C[C@H]2C[C@@H]1CN2C [Compound 14g, N-(5-(3-benzyl-1-((1r,4R)-4-((5-cyanopyridin-2-yl)amino)cyclohexyl)ureido)-2-((1R,4R)-5-methyl-2,5-diazabicyclo[2.2.1]heptan-2-yl)phenyl)acrylamide] | 209 | 83.9 | 76.3 |  |
| C=CC(=O)Nc1cc(N(C(=O)NCc2ccccc2)[C@H]2CC[C@H](Nc3ccc(C#N)cn3)CC2)ccc1N1CCC(N(C)C)C1 (stereo partly drawn) [Compound 14e, N-(5-(3-benzyl-1-((1r,4r)-4-((5-cyanopyridin-2-yl)amino)cyclohexyl)ureido)-2-(3-(dimethylamino)pyrrolidin-1-yl)phenyl)acrylamide] | 568 | 177 | 57.6 |  |
| C=CC(=O)Nc1cc(N(C(=O)NCc2ccccc2)[C@H]2CC[C@H](Nc3ccc(C#N)cn3)CC2)ccc1-c1ccc(=O)n(C)c1 [Compound 14a, N-(5-(3-benzyl-1-((1r,4r)-4-((5-cyanopyridin-2-yl)amino)cyclohexyl)ureido)-2-(1-methyl-6-oxo-1,6-dihydropyridin-3-yl)phenyl)acrylamide] | 37.9 | 14.9 | 330 | Papp A→B [4]: 0.07 ×10⁻⁶ cm/s; Papp B→A [4]: 5.25 ×10⁻⁶ cm/s; efflux ratio [4]: 72.6; antiproliferative potency in VCaP cells, fold more potent than lead compound 2 [1]: approximately 6 fold |
| Cn1cc(-n2cnc3c(NCc4nc5cc(Cl)c(Cl)cc5[nH]4)nc(N4CCOCC4)nc32)cn1 [Compound 10, SR-4835, reference compound] |  |  |  | cell growth inhibitory effect after washout (VCaP cells [5]): nearly completely lost following washout |
| C=CC(=O)Nc1cc(N(C(=O)NCc2ccccc2)[C@H]2CC[C@H](Nc3ccc(C#N)cn3)CC2)ccc1N1CC(N(C)C)C1 [Compound 14d, N-(5-(3-benzyl-1-((1r,4r)-4-((5-cyanopyridin-2-yl)amino)cyclohexyl)ureido)-2-(3-(dimethylamino)azetidin-1-yl)phenyl)acrylamide] | 151 | 73.7 | 133 |  |
| C=CC(=O)Nc1cc(N(C(=O)NCc2ccccc2)[C@H]2CC[C@H](Nc3ccc(C#N)cn3)CC2)ccc1N(C)CCN(C)C [Compound 14c, N-(5-(3-benzyl-1-((1r,4r)-4-((5-cyanopyridin-2-yl)amino)cyclohexyl)ureido)-2-((2-(dimethylamino)ethyl)(methyl)amino)phenyl)acrylamide] | 191 | 79.3 | 44.4 | antiproliferative potency in VCaP cells, fold more potent than lead compound 2 [1]: approximately 44 fold |
| C=CC(=O)Nc1cc(N(C(=O)NCc2ccccc2)[C@H]2CC[C@H](Nc3ccc(C#N)cn3)CC2)ccc1N1CCN(C)[C@@H](C)C1 [Compound 14h, N-(5-(3-benzyl-1-((1r,4S)-4-((5-cyanopyridin-2-yl)amino)cyclohexyl)ureido)-2-((S)-3,4-dimethylpiperazin-1-yl)phenyl)acrylamide] | 33.1 | 21.7 | 4.3 | AUC(0-t) ([6]; iv, i.v. 2 mg/kg): 309 ng·h/mL; Cmax ([6]; iv, i.v. 2 mg/kg): 658 ng/mL; Tmax ([6]; iv, i.v. 2 mg/kg): 4.8 min; clearance ([6]; iv, i.v. 2 mg/kg): 108 mL/min/kg; half-life ([6]; iv, i.v. 2 mg/kg): 21.6 min; bioavailability ([6]; po, 10 mg/kg, p.o. 10 mg/kg, read-out: F (oral bioavailability)): 42.2%; AUC(0-t) ([6]; po, p.o. 10 mg/kg): 652 ng·h/mL; Cmax ([6]; po, p.o. 10 mg/kg): 499 ng/mL; Tmax ([6]; po, p.o. 10 mg/kg): 30 min; half-life ([6]; po, p.o. 10 mg/kg): 37.2 min; Number of Hits, S (1) (468 kinases): 0; Number of Hits, S (10) (468 kinases): 2; Number of Hits, S (35) (468 kinases): 6; Selectivity Score S (10) (468 kinases): 0.005; Selectivity Score S (35) (468 kinases): 0.015 |
| C=CC(=O)Nc1cc(N(C(=O)NCc2ccccc2)[C@H]2CC[C@H](Nc3ccc(C#N)cn3)CC2)ccc1N1CCN(C(C)=O)CC1 [Compound 14i, N-(2-(4-acetylpiperazin-1-yl)-5-(3-benzyl-1-((1r,4r)-4-((5-cyanopyridin-2-yl)amino)cyclohexyl)ureido)phenyl)acrylamide] | 331 | 164 | 45.5 | fold weaker potency against the kinases compared to 14f (CDK12/CycK; CDK12 and CDK13): 2- to 3 fold |
| C=CC(=O)Nc1cc(N(C(=O)NCc2ccccc2)[C@H]2CC[C@H](Nc3ccc(C#N)cn3)CC2)ccc1N1CCOCC1 [Compound 14j, N-(5-(3-benzyl-1-((1r,4r)-4-((5-cyanopyridin-2-yl)amino)cyclohexyl)ureido)-2-morpholinophenyl)acrylamide] | 55 | 12.8 | 59.9 |  |
